# Where two headings read alike, the source gives them in different places.
# Experiments:
# [1] = system: injection de phényl benzoquinone; experiment: analgesic activity, phenylbenzoquinone test (Siegmund et al.); type: in vivo
# Description: L'activité antalgique a été étudiée selon Siegmund et Coll.
# Les composés sont administrés par voie orale 30 minutes avant l'injection de phényl benzoquinone.
# [2] = acute oral toxicity (LD50, method of Miller and Tainter); conditions: in vivo, mouse about 20 g, read-out: DL 50 voie orale
# From the text: L'étude de la toxicité a été effectuée chez la souris conventionnelle pesant environ 20 grammes..
# Les substances ont été administrées par voie orale, la DL 50 est calculée suivant la méthode de L.C. Miller et M.L. Tainter, Proc. Soc. Exper. Biol. Med., 1944, 57, 261.
# [3] = system: oedème provoqué par injection de carragénine dans la patte du rat; experiment: carrageenan-induced paw oedema (Winter, Risley, Nuss); type: in vivo; conditions: oral, suspension in tween-water, 2 hours before the test, read-out: ED 50 (dose diminuant de 50 % le volume de la patte)
# From the text: Les propriétés anti-inflammatoires ont été révélées par le test de l'oedème provoqué par injection de carragénine dans la patte du rat selon la technique de C. Winter, E. Risley, et G. Nuss. Proc. Soc. Exper. Biol. Med., 1962, 111, 544-547.
# Les produits ont été administrés par voie orale en suspension dans le mélange tween-eau 2 heures avant l'expérimentation.
# [4] = system: granulome aux pellets de coton; experiment: cotton pellet granuloma (Meier, Schuler, Desaulles); type: in vivo; conditions: 120 h; dose from which a clear reduction is seen; results read after 5 days; read-out: réduction nette du poids du granulome à partir de
# Description: Les résultats obtenus sur le granulome aux pellets de coton selon la technique de R. Meier, Schuler et Desaulles - Experientia 1950, 6, 469, permettent de mettre en évidence une réduction nette du poids du granulome à partir de 10 mg/kg pour le F 1920 et le F 2073.
# Les résultats sont relevés au bout de 5 jours et aucune modification n'est observée, comparativement aux témoins, en ce qui concerne
# [5] = oral, 30 minutes before injection of phenylbenzoquinone, read-out: DE 50 (the source's name)
SMILES,"ED50 ([1]; po, read-out: DE 50) [mg/kg]",LD50 [2] [mg/kg],ED50 [3] [mg/kg],minimal effective dose [4] [mg/kg],"ED50 [1, 5] [mg/kg]"
"CC(=O)Oc1ccccc1C(=O)O [Acide acétyl salicylique, reference compound]",100,–,–,–,–
"CC(/C=C/c1ccc(-c2ccccc2Cl)cc1)C(=O)O (stereo not drawn) [F 2073, acide trans orthochlorophényl-4' phényl-4 méthyl-2 buten-3 oïque]",–,750,15,≥ 10,7
"CC(/C=C/c1ccc(-c2ccccc2)cc1)C(=O)O (stereo not drawn) [F 1920, acide trans p-biphényl-4, méthyl-2 buten-3 oïque]",–,500,25,≥ 10,10
CC(/C=C/c1ccc(-c2ccccc2F)cc1)C(=O)O (stereo not drawn) [Acide trans orthofluorophényl-4' phényl-4 méthyl-2 buten-3 oïque],–,1000,–,–,5
"O=C(OCC(O)CO)c1ccccc1Nc1ccnc2cc(Cl)ccc12 (stereo not drawn) [Glafénine, reference compound]",–,–,–,–,36

# — patent EP0020230A2, “p-Biphenyl-4-methyl-2-butenoic acids, process for their preparation, pharmaceutical compositions containing them and their use” (PIERRE FABRE S.A., priority 1979, dated 1980)
